In PubChem BioAssay (NCI):
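Interpolation was linear, between the two tested concentrations surrounding the appropriate level; five concentrations were tested over 48 hours in 96-well plates. The concentration for 50% growth inhibition is given as GI50. TGI is the concentration that stops growth completely.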

Legend:
Experiment in all cases: NCI anticancer screen, dose series, 48 h
PC-3 prostate = system: PC-3 prostate
SR leukemia = system: SR leukemia
A549 NSCLC = system: A549 NSCLC
CAKI-1 renal = system: CAKI-1 renal
SK-MEL-28 melanoma = system: SK-MEL-28 melanoma
MCF7 breast = system: MCF7 breast
786-0 renal = system: 786-0 renal
KM12 colon = system: KM12 colon
SF-295 CNS = system: SF-295 CNS
HOP-92 NSCLC = system: HOP-92 NSCLC
MDA-MB-231 breast = system: MDA-MB-231 breast
MDA-MB-435 = system: MDA-MB-435
NCI-H460 lung = system: NCI-H460 lung
RXF 393 renal = system: RXF 393 renal
NCI-H522 lung = system: NCI-H522 lung
NCI-H23 lung = system: NCI-H23 lung
A498 renal = system: A498 renal
SF-539 CNS = system: SF-539 CNS
SNB-19 CNS = system: SNB-19 CNS
HCC-2998 colon = system: HCC-2998 colon
TK-10 renal = system: TK-10 renal
SK-MEL-2 melanoma = system: SK-MEL-2 melanoma
HCT-15 colon = system: HCT-15 colon
OVCAR-5 ovarian = system: OVCAR-5 ovarian
BT-549 breast = system: BT-549 breast
SW-620 colon = system: SW-620 colon
HCT-116 colon = system: HCT-116 colon
SF-268 CNS = system: SF-268 CNS
K-562 leukemia = system: K-562 leukemia

Cc1nc2cc(-c3nn(C(C)C)c4ncnc(N)c34)ccc2o1 was tested, and the GI50 (PC-3 prostate) was 6.5 nM, the TGI (PC-3 prostate) was 598 nM and the GI50 (SR leukemia) was 16.8 nM. For the same molecule, the TGI (SR leukemia) was 8.07 µM, the GI50 (A549 NSCLC) was 12.7 nM and the TGI (A549 NSCLC) was 310 nM. It also gave a GI50 (CAKI-1 renal) of 4.9 nM, a TGI (CAKI-1 renal) of 84.4 nM and a GI50 (SK-MEL-28 melanoma) of 6.62 nM. For the same molecule, the TGI (SK-MEL-28 melanoma) was 125 nM, the GI50 (MCF7 breast) was 3.79 nM and the TGI (MCF7 breast) was over 10 µM. It also gave a GI50 (786-0 renal) of 13.6 nM, a TGI (786-0 renal) of 287 nM and a GI50 (KM12 colon) of 17.2 nM. For the same molecule, the TGI (KM12 colon) was 4.98 µM, the GI50 (SF-295 CNS) was 6.99 nM and the TGI (SF-295 CNS) was 78.1 nM. The GI50 (HOP-92 NSCLC) was 1.96 nM, the TGI (HOP-92 NSCLC) was 34.4 nM and the GI50 (MDA-MB-231 breast) was 11.6 nM. For the same molecule, the TGI (MDA-MB-231 breast) was over 3.93 µM, the GI50 (MDA-MB-435) was 8.54 nM and the TGI (MDA-MB-435) was 98.2 nM. It also gave a GI50 (NCI-H460 lung) of 5.89 nM, a TGI (NCI-H460 lung) of over 10 µM and a GI50 (RXF 393 renal) of 6.62 nM. It also gave a TGI (RXF 393 renal) of 104 nM, a GI50 (NCI-H522 lung) of 3.64 nM and a TGI (NCI-H522 lung) of 787 nM. For the same molecule, the GI50 (NCI-H23 lung) was 41.5 nM, the TGI (NCI-H23 lung) was over 7 µM and the GI50 (A498 renal) was 1.85 nM. For the same molecule, the TGI (A498 renal) was 6.89 nM, the GI50 (SF-539 CNS) was 22.7 nM and the TGI (SF-539 CNS) was 169 nM. It also gave a GI50 (SNB-19 CNS) of 41.2 nM, a TGI (SNB-19 CNS) of over 10 µM and a GI50 (HCC-2998 colon) of 12.2 nM. It also gave a TGI (HCC-2998 colon) of over 10 µM, a GI50 (TK-10 renal) of 6.25 nM and a TGI (TK-10 renal) of 166 nM. The GI50 (SK-MEL-2 melanoma) was 21.3 nM, the TGI (SK-MEL-2 melanoma) was 137 nM and the GI50 (HCT-15 colon) was 12.6 nM. The TGI (HCT-15 colon) was over 6.08 µM, the GI50 (OVCAR-5 ovarian) was 14.9 nM and the TGI (OVCAR-5 ovarian) was 2180 nM. It also gave a GI50 (BT-549 breast) of 3.51 nM, a TGI (BT-549 breast) of 61 nM and a GI50 (SW-620 colon) of 36.6 nM. For the same molecule, the TGI (SW-620 colon) was over 10 µM, the GI50 (HCT-116 colon) was 35 nM and the TGI (HCT-116 colon) was over 10 µM. The GI50 (SF-268 CNS) was 14.3 nM, the TGI (SF-268 CNS) was 1840 nM and the GI50 (K-562 leukemia) was 28.8 nM. For the same molecule, the TGI (K-562 leukemia) was over 10 µM.
